Laboratory results from patent US20240408064A1, “RAS INHIBITORS, COMPOSITIONS AND METHODS OF USE THEREOF” (GENETOLEAD INC., priority 2021, published 2024).

Biological target: HRas^G12V (Homo sapiens (Human), UniProt P01112, G12V)
Assay: Dissociation constant by ITC
Assay type: binding
Procedure: ITC experiments were performed using a Nano ITC isothermal titration calorimeter from TA Instruments. Experiments were performed in reverse-mode by titrating 50 μL of protein solution at a concentration of 300-600 μM into 350 μL of ligand solution at concentrations between 10-50 μM. Stir rate was 200-250 rpm with 16-25 injections, each at 2-3 μL with 150 seconds between each injection. Data fitting was performed using Nano ITCRun software.

Sequence of HRas^G12V (P01112 1-166 G12V): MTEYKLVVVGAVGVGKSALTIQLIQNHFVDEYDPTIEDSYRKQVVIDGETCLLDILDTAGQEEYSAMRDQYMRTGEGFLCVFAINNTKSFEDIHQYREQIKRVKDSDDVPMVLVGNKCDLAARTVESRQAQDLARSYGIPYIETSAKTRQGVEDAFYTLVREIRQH

Kd: 17 to 159 µM
SMILES: CN(C)CC(=O)Nc1cccc(NC(=O)Cc2c[nH]c3cc(F)ccc23)c1 [compound 10097]
